Earlier results on one substance are cited in patent US20030124524A1, “Screening assays for identifying modulators of the inflammatory or immune response” (priority 2000, published 2003).

Like-named read-outs stand apart in the source and are kept apart here.

With “rhIL-1ra: recombinant human IL-1 receptor antagonist protein, useful for treatment of rheumatoid arthritis in a genotype-dependent manner”, the “response to treatment of rheumatoid arthritis” value (patients carrying at least one IL-1A (+4845) allele 2 (and alleles in linkage disequilibrium)) is “substantial and significant response”; the “response to treatment of rheumatoid arthritis” value (patients homozygous for IL-1A (+4845) allele 1) is “response no better than placebo”.
